These results are taken from US9228178B2, “Engineering of xylose reductase and overexpression of xylitol dehydrogenase and xylulokinase improves xylose alcoholic fermentation in the thermotolerant yeast Hansenula polymorpha” (Archer Daniels Midland Co., priority 2008, dated 2016).

The target of data set [1] is T1, Hansenula polymorpha xylose reductase (XR) variant XRm, K341R N343D, cofactor binding site SEQ ID NO: 2 (Ogataea polymorpha, UniProt A0A1B7SLF1, K271R/N273D).
T1 sequence (A0A1B7SLF1 with tags, fused parts or gaps K271R/N273D): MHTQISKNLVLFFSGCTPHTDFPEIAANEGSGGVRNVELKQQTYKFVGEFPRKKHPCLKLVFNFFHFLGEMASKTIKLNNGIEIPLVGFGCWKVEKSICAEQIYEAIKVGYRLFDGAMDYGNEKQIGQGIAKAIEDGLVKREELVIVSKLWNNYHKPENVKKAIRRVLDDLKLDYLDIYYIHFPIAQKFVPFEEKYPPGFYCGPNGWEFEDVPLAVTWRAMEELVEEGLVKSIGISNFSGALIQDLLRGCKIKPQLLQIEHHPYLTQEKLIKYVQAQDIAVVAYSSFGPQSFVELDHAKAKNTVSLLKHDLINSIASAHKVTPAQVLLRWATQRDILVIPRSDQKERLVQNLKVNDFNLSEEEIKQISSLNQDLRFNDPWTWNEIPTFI
As to the kind of experiment: KM towards NADPH or NADH of engineered xylose reductase (XRm), spectrophotometric XR assay in cell extract. Particulars: XRm vs native XR. As for the experimental part:
The XR activity in cell extracts was determined spectrophotometrically at 37° C. […] The reaction was started with cell extract addition.
Biochemical properties of XR in one of constructed recombinant strains (designated XRm) were studied.

Data set [2] concerns the target T2, Hansenula polymorpha xylose reductase (XR), native (XRn), cofactor binding site SEQ ID NO: 1 (Ogataea polymorpha, UniProt A0A1B7SLF1).
T2 construct: native XYL1 ORF from CBS4732 genomic DNA, HpGAP promoter (pX1N-Z), overexpressed in H. polymorpha Δxyl1; cell extract
T2 sequence (A0A1B7SLF1 with tags, fused parts or gaps): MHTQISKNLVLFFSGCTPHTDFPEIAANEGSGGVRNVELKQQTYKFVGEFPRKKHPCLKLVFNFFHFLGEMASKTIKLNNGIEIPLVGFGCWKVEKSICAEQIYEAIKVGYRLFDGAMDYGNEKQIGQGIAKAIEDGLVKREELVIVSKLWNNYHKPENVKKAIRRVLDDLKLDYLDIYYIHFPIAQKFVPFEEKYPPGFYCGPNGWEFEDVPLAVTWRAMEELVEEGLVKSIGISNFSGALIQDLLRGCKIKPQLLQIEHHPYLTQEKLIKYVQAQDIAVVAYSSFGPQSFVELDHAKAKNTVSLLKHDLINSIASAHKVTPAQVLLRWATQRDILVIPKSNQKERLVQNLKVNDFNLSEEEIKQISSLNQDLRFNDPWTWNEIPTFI
In words: KM towards NADPH or NADH of native xylose reductase (XRn), spectrophotometric XR assay in cell extract. The conditions noted are these: dual cofactor specificity. The class given is biochemical.

Substrate in data set [3]: NC(=O)C1=CN([C@@H]2O[C@H](COP(=O)(O)OP(=O)(O)OC[C@H]3O[C@@H](n4cnc5c(N)ncnc54)[C@H](O)[C@@H]3O)[C@@H](O)[C@H]2O)C=CC1
As to the kind of experiment: cells, lysate or membranes. The conditions noted are these: other: XRm, 37° C., pH 7.0, xylose 350 mM, NADH 20-150 μM.

Substrate in data set [4]: NC(=O)C1=CN([C@@H]2O[C@H](COP(=O)(O)OP(=O)(O)OC[C@H]3O[C@@H](n4cnc5c(N)ncnc54)[C@H](OP(=O)(O)O)[C@@H]3O)[C@@H](O)[C@H]2O)C=CC1
In words: cells, lysate or membranes. The conditions noted are these: xylose as substrate, 37° C., pH 7.0, xylose 350 mM, NADPH 20-150 μM.

Take `NC(=O)C1=CN([C@@H]2O[C@H](COP(=O)(O)OP(=O)(O)OC[C@H]3O[C@@H](n4cnc5c(N)ncnc54)[C@H](OP(=O)(O)O)[C@@H]3O)[C@@H](O)[C@H]2O)C=CC1` [NADPH]: in data set [1], the “KM for NADPH, change against native XR (in words)” value is on record as “significant increase”. Besides, the “KM for NADPH, times higher than the KM for NADPH of the native XR” value in data set [1] (xylose as substrate) is given as 17 times. Besides, the “cofactor preference for NADPH (over NADH)” value in data set [2] is on record as above 10 fold. Consider `NC(=O)C1=CN([C@@H]2O[C@H](COP(=O)(O)OP(=O)(O)OC[C@H]3O[C@@H](n4cnc5c(N)ncnc54)[C@H](O)[C@@H]3O)[C@@H](O)[C@H]2O)C=CC1` [NADH], for which, in data set [1], the “KM for NADH, compared with native XR (in words)” value is reported as “remained nearly unchanged”.

B1: Hansenula polymorpha xylose reductase (XR) variant XRm, K341R N343D, cofactor binding site SEQ ID NO: 2 (Ogataea polymorpha; K271R/N273D) (protein)
chain: MHTQISKNLVLFFSGCTPHTDFPEIAANEGSGGVRNVELKQQTYKFVGEFPRKKHPCLKLVFNFFHFLGEMASKTIKLNNGIEIPLVGFGCWKVEKSICAEQIYEAIKVGYRLFDGAMDYGNEKQIGQGIAKAIEDGLVKREELVIVSKLWNNYHKPENVKKAIRRVLDDLKLDYLDIYYIHFPIAQKFVPFEEKYPPGFYCGPNGWEFEDVPLAVTWRAMEELVEEGLVKSIGISNFSGALIQDLLRGCKIKPQLLQIEHHPYLTQEKLIKYVQAQDIAVVAYSSFGPQSFVELDHAKAKNTVSLLKHDLINSIASAHKVTPAQVLLRWATQRDILVIPRSDQKERLVQNLKVNDFNLSEEEIKQISSLNQDLRFNDPWTWNEIPTFI
With B1, the results for the Km in data set [3] and in data set [4] (other: XRm) were 112 µM and 152 µM, respectively.

B2: Hansenula polymorpha xylose reductase (XR), native (XRn), cofactor binding site SEQ ID NO: 1 (Ogataea polymorpha) (protein)
chain: MHTQISKNLVLFFSGCTPHTDFPEIAANEGSGGVRNVELKQQTYKFVGEFPRKKHPCLKLVFNFFHFLGEMASKTIKLNNGIEIPLVGFGCWKVEKSICAEQIYEAIKVGYRLFDGAMDYGNEKQIGQGIAKAIEDGLVKREELVIVSKLWNNYHKPENVKKAIRRVLDDLKLDYLDIYYIHFPIAQKFVPFEEKYPPGFYCGPNGWEFEDVPLAVTWRAMEELVEEGLVKSIGISNFSGALIQDLLRGCKIKPQLLQIEHHPYLTQEKLIKYVQAQDIAVVAYSSFGPQSFVELDHAKAKNTVSLLKHDLINSIASAHKVTPAQVLLRWATQRDILVIPKSNQKERLVQNLKVNDFNLSEEEIKQISSLNQDLRFNDPWTWNEIPTFI
Take B2: the Km in data set [4] (other: native XR) was 9 µM.
